# Where “and” joins values, the source holds several entries; their conditions need not be identical. Identical values can stand only once. Like-named read-outs stand apart in the source and are kept apart here.
# Tests used:
# [1] = tested on: patients with solid tumors or lymphoma; design: method as in ref 20 (a number printed in a supplementary file, which may have a reference list of its own: not looked up in the article's list); settings: cited from earlier work
# pERK = tested on: pERK; design: method as in ref 17 (a number printed in a supplementary file, which may have a reference list of its own: not looked up in the article's list); settings: cited from earlier work
# [2] = cited from earlier work
# [3] = tested on: BRAF V600E or V600K mutation-positive melanoma; settings: 40 patients with prior BRAF inhibitor; 2 mg PO QD; cited from earlier work
# [4] = tested on: patients with advanced melanoma; settings: cited from earlier work
# advanced solid tumors = experiment: Tumor response (RECIST 1.1) and PFS (Kaplan Meier); type: in vivo, human;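 further: patients were grouped by hepatic function into four groups, and PFS differences among these groups were tested with a log rank test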
# CYP 2B6 and 3A4 = settings: cited from earlier work
# pMEK1 kinase activity = molecular target: pMEK1 kinase activity; design: method as in ref 19 (a number printed in a supplementary file, which may have a reference list of its own: not looked up in the article's list); settings: cited from earlier work
# pERK, Ki67, and p27 = tested on: pERK, Ki67, and p27; design: method as in ref 19 (a number printed in a supplementary file, which may have a reference list of its own: not looked up in the article's list); settings: 2 mg QD, cited from earlier work
# [5] = tested on: advanced cancer patients with varying degrees of hepatic dysfunction
# [6] = cited from earlier work; remark: listed apart in the source
# CYP enzymes = settings: cited from earlier work
# [7] = tested on: MRP2, BSEP, P-gp, BCRP, OATP1B1, OATP1B3, OAT1, OAT3, OCT2, MATE1; settings: cited from earlier work
# [8] = tested on: acute myeloid leukemia or myelodysplastic syndrome; settings: cited from earlier work
# [9] = trametinib and its metabolites; cited from earlier work
# HCT-116 xenograft = tested on: HCT-116 xenograft; design: method as in ref 17 (a number printed in a supplementary file, which may have a reference list of its own: not looked up in the article's list); settings: cited from earlier work
# [10] = cited from earlier work; remark: listed apart in the source
# [11] = 13 patients with KRAS or NRAS mutations
compound,measurement,setting,value
"CC(=O)Nc1cccc(-n2c(=O)n(C3CC3)c(=O)c3c(Nc4ccc(I)cc4F)n(C)c(=O)c(C)c32)c1 [Trametinib, equimolecular combination of acetamide, N-[3-[3-cyclopropyl-5-[(2-fluoro-4-iodophenyl)amino]-3,4,6,7-tetrahydro6,8-dimethyl-2,4,7-trioxopyrido[4,3-d]pyrimidin-1(2H)-yl]phenyl] with 1,1’-sulfinylbis[methane]]",MTD,[1],3 mg QD
same,recommended phase 2 dose (RP2D),[1],2 mg QD
same,duration of pERK inhibition,pERK; after the Day 7 dose,over 24 hours
same,duration of pERK reduction,"pERK; first dose 3 mg/kg, Day 1",more than 8 hours
same,Cmax,[2]; 2 mg QD on Day 15,23 ng/mL
same,mean AUC0-24,[2]; 2 mg QD on Day 15,376 ng·h/mL
same,"Between-subject variability in exposure, AUC0-24",[2]; across all dosing regimens,20-41%
same,"Between-subject variability in exposure, Cmax",[2]; across all dosing regimens,27-50%
same,effective t1/2,[2]; in vivo,approximately 4.5 days
same,steady state reached by,[2]; in vivo,~15 days
same,confirmed PR or CR,[3],None of the patients
same,Cardiomyopathy resolved,[4]; 10 of 14 patients,71%
same,Pruritis,[4]; All Grades,10%
same,Stomatitis,[4]; All Grades,15%
same,Pruritis,[4]; Grades 3 and 4,2%
same,Stomatitis,[4]; Grades 3 and 4,2%
same,Dose reduction required for skin toxicities,[4]; in vivo,12%
same,Severe skin toxicity,[4]; in vivo,12%
same,overall incidence of skin toxicity,[4]; in vivo,87%
same,permanent discontinuation for skin toxicities,[4]; in vivo,1%
same,median time to onset of skin toxicity,[4]; range: 1 to 221 days,15 days
same,median time to resolution of skin toxicity,[4]; range: 1 to 282 days,48 days
same,duration of SD (range),advanced solid tumors; Mild,3.0-6.6 months
same,median duration of SD,advanced solid tumors; Mild,4.8 months
same,Best Response: Partial Response,advanced solid tumors; Mild DL1 2 mg,0 (0) n (%)
same,Best Response: Progressive Disease,advanced solid tumors; Mild DL1 2 mg,4 (66.7) n (%)
same,Best Response: Stable Disease,advanced solid tumors; Mild DL1 2 mg,2 (33.3) n (%)
same,Best Response: Stable Disease,"advanced solid tumors; Mild DL1 2 mg, listed as trametinib",2 (33.3%) n (%)
same,median PFS,advanced solid tumors; Mild group,1.74 months
same,duration of SD (range),advanced solid tumors; Mod (1.5 mg),3.0-3.5 months
same,median duration of SD,advanced solid tumors; Mod (1.5 mg),3.5 months
same,duration of SD (range),advanced solid tumors; Mod (2 mg),2.3-2.4 months
same,median duration of SD,advanced solid tumors; Mod (2 mg),2.4 months
same,Best Response: Partial Response,advanced solid tumors; Mod DL1 1.5 mg,0 (0) n (%)
same,Best Response: Progressive Disease,advanced solid tumors; Mod DL1 1.5 mg,1 (25.0) n (%)
same,Best Response: Stable Disease,advanced solid tumors; Mod DL1 1.5 mg,3 (75.0) n (%)
same,Best Response: Stable Disease,"advanced solid tumors; Mod DL1 1.5 mg, listed as trametinib",3 (75%) n (%)
same,Best Response: Partial Response,advanced solid tumors; Mod DL+1 2 mg,0 (0) n (%)
same,Best Response: Progressive Disease,advanced solid tumors; Mod DL+1 2 mg,1 (33.3) n (%)
same,Best Response: Stable Disease,advanced solid tumors; Mod DL+1 2 mg,2 (66.7) n (%)
same,Best Response: Stable Disease,"advanced solid tumors; Mod DL+1 2 mg, listed as trametinib",2 (66%) n (%)
same,median PFS,advanced solid tumors; Mod group,3.45 months
same,duration of SD (range),advanced solid tumors; Norm,1.9-12.5 months
same,median duration of SD,advanced solid tumors; Norm,3.8 months
same,Best Response: Partial Response,advanced solid tumors; Norm 2 mg,2 (15.4) n (%)
same,Best Response: Progressive Disease,advanced solid tumors; Norm 2 mg,4 (30.8) n (%)
same,Best Response: Stable Disease,advanced solid tumors; Norm 2 mg,7 (53.8) n (%)
same,Best Response: Stable Disease,"advanced solid tumors; Norm 2 mg, listed as trametinib",7 (53.8%) n (%)
same,median PFS,advanced solid tumors; Norm group,3.62 months
same,duration of SD (range),advanced solid tumors; Sev (1 mg),2.7-4.6 months
same,median duration of SD,advanced solid tumors; Sev (1 mg),3.4 months
same,Best Response: Partial Response,advanced solid tumors; Sev DL1 1 mg,0 (0) n (%)
same,Best Response: Progressive Disease,advanced solid tumors; Sev DL1 1 mg,1 (25.0) n (%)
same,Best Response: Stable Disease,advanced solid tumors; Sev DL1 1 mg,3 (75.0) n (%)
same,Best Response: Stable Disease,"advanced solid tumors; Sev DL1 1 mg, listed as trametinib",3 (75%) n (%)
same,Best Response: Partial Response,advanced solid tumors; Sev DL+1 1.5 mg,0 (0) n (%)
same,Best Response: Progressive Disease,advanced solid tumors; Sev DL+1 1.5 mg,1 (100%) n (%)
same,Best Response: Stable Disease,advanced solid tumors; Sev DL+1 1.5 mg,0 (0) n (%)
same,Best Response: Stable Disease,"advanced solid tumors; Sev DL+1 1.5 mg, listed as trametinib",0 (0%) n (%)
same,median PFS,advanced solid tumors; Sev group,2.11 months
same,Best Response: Partial Response,advanced solid tumors; Total,2
same,Best Response: Progressive Disease,advanced solid tumors; Total,12
same,Best Response: Stable Disease,advanced solid tumors; Total,17
same,CYP 2B6 and 3A4 inducer,CYP 2B6 and 3A4,weak
same,IC50,pMEK1 kinase activity,13 nM
same,median inhibition of pERK,"pERK, Ki67, and p27; BRAF or NRAS mutation-positive metastatic melanoma",62%
same,median increase in p27,"pERK, Ki67, and p27",175%
same,median inhibition of Ki67,"pERK, Ki67, and p27",83%
same,Death related to TRAEs,[5]; Mild 2 mg,0 (0%)
same,Death related to TRAEs,[5]; Mod DL1 1.5 mg,0 (0%)
same,Death related to TRAEs,[5]; Mod DL+1 2 mg,0 (0%)
same,Death related to TRAEs,[5]; Norm 2 mg,0 (0%)
same,Death related to TRAEs,[5]; Sev DL1 1 mg,0 (0%)
same,Death related to TRAEs,[5]; Sev DL+1 1.5 mg,0 (0%)
same,Death related to TRAEs,[5]; Total Patients,0 (0%)
same,Death related to TRAEs,"[5]; Total Patients, listed as trametinib",No treatment related deaths
same,Alanine aminotransferase increased,"[5]; human, in vivo",9 (20%)
same,Anemia,"[5]; human, in vivo",10 (23%)
same,Blood alkaline phosphatase increased,"[5]; human, in vivo",9 (20%)
same,Grade 3 TRAEs,"[5]; human, in vivo",2 events
same,Hypertension,"[5]; human, in vivo",8 (18%)
same,Hypomagnesemia,"[5]; human, in vivo",8 (18%)
same,Hyponatremia,"[5]; human, in vivo",9 (20%)
same,Maculopapular rash,"[5]; human, in vivo",11 (23%)
same,Mucositis,"[5]; human, in vivo",6 (14%)
same,Thrombocytopenia,"[5]; human, in vivo",10 (23%)
same,Treatment discontinuation due to TRAEs,"[5]; human, in vivo",3 (7%)
same,Treatment discontinuation due to non-TRAEs,"[5]; human, in vivo",10 (23%)
same,Vomiting,"[5]; human, in vivo",9 (20%)
same,grade 3 gamma-glutamyl transferase increased,"[5]; human, in vivo",1 patient
same,grade 3 pneumonitis,"[5]; human, in vivo",1 patient
same,"difference in exposure, mild hepatic impairment vs normal hepatic function",[6]; 64 ([…]) subjects with mild hepatic impairment (NCI classification),2%
same,"oral clearance and exposure, mild hepatic impairment vs normal hepatic function",[6]; population PK analysis,not significantly different
same,"inhibitor of CYP 1A2, 2A6, 2B6, 2C9, 2C19, 2D6 and 3A4",CYP enzymes,not an inhibitor
same,"inhibitor of CYP1A2, CYP2A6, CYP2B6, CYP2D6, and CYP3A4",CYP enzymes; in vitro studies,not an inhibitor
same,inhibitor of CYP 2C8,CYP enzymes; in vitro,in vitro inhibitor
same,"inhibitor of P-gp, BCRP, OATP1B1, OATP1B3, OAT1, OAT3, OCT2 and MATE1",[7]; at systemic concentrations that are not clinically relevant,in vitro inhibitor
same,inhibitor of MRP2 or BSEP,[7],not an inhibitor
same,best response CRs,[8]; [11],3
same,best response PD,[8]; [11],1
same,best response SD,[8]; [11],7
same,PRs,[8]; 26 patients with wild-type RAS or unknown mutation,2
same,patients withdrew due to an AE,"[8]; AML or MDS, 1-2 mg QD",23%
same,excreted in the feces,[9],≥ 81%
same,excreted in urine,[9],≤ 19%
same,TGI,HCT-116 xenograft,83%
same,"fecal excretion, of the radioactive dose",[10]; 2 subjects,39.2% and 35.0%
same,"fecal excretion, of excreted radioactivity recovered",[10]; oral dose,> 80%
same,"urinary excretion, of excreted radioactivity recovered",[10]; oral dose,< 19%
same,"urinary excretion, of the radioactive dose",[10]; oral dose,< 10%
